Experimental data taken from patent US20260159482A1, “CRYSTAL FORM AND AMORPHOUS FORM OF CAREBASTINE P-TOLUENESULFONATE” (priority 2023, published 2026).
Structures can show the parent of a compound that is named as a salt. Where two headings read alike, the source gives them in different places.

Key:
[1] = for AUC0-t / Cmax / T1/2 / Tmax / increase in AUC0-t compared with Comparative Example 1 / increase in AUC0-t compared with Comparative Example 2 / increase in Cmax compared with Comparative Example 1 / increase in Cmax compared with Comparative Example 2: male; for AUC0-t / Cmax / T1/2 / Tmax / Tmax compared with Comparative Example 2 / half-life (T1/2) compared with Comparative Example 2 / increase in AUC0-t compared with Comparative Example 1 / increase in AUC0-t compared with Comparative Example 2 / increase in Cmax compared with Comparative Example 1 / increase in Cmax compared with Comparative Example 2: dog, in vivo; for AUC0-t / Cmax / T1/2 / Tmax: po, 2.23 mg; for half-life (T1/2) compared with Comparative Example 1 / peak time (Tmax) compared with Comparative Example 1: vs ebastine
Description: Ebastine (Comparative Example 1), carebastine (Comparative Example 2), a crystal form of carebastine p-toluenesulfonate (Example 2) and an amorphous form of carebastine p-toluenesulfonate (Example X) were prepared into enteric capsules, respectively.
• Species: Beagle; • Level: normal level; • Animal number and gender: 8 males; • Age: […] old during grouping; • Body weight: the weight during grouping ranged from 8.90 to 10.3 kg, with an average of 10.0 kg.
Dose: in terms of carebastine, each group was dosed at equimolar dose, and appropriate amounts of compounds were weighed and filled into capsules. That is, the drug of carebastine in each capsule is 2.23 mg.
After the test compounds were filled into capsules, 2×4 crossover tests were carried out according to the table above. A 7-day elution period was counted from the start of administration. The corresponding test compounds were administered to each group in different test cycles.
All animals were fasted overnight (for 12 h or more) before each administration, and feeding was resumed 4 h after the administration. The animals had free access to drinking water.
Blood samples were collected at 0 h before administration, and at 10 min, 20 min, 30 min, 45 min, 1 h, 2 h, 3 h, 5 h, 6 h, 8 h, 10 h and 24 h after administration, for a total of 13 blood collection time points.
Approximately 2 mL of blood was collected from a forelimb vein at the set blood collection time points and placed in an EDTA-K2 anticoagulation tube. Whole blood samples were kept at room temperature for 1.5 h after the collection and then centrifuged (at 3000 g centrifugal force, 4° C.) for 10 min.
The concentration of carebastine in plasma was determined using liquid chromatography-mass spectrometry-mass spectrometry (HPLC-MS/MS).
The pharmacokinetic parameters of each group were calculated using the non-compartmental model with the WinNonlin software (version 8.3 or higher).

[2] = Hygroscopicity study (weight gain at 25° C., RH 80%, 24 h); assay type: physicochemical
Description: • (1) The day prior to the test, a dry glass weighing bottle (with an outer diameter of 50 mm and a height of 15 mm) with a lid was placed in a suitable constant temperature dryer (the lower part of which holds a saturated solution of ammonium chloride or ammonium sulphate) at 25° C.±1° C. or an artificial climate chamber (at a temperature of 25° C.±1° C. and a relative humidity of 80%±2%), and the weight (m1) of the bottle with the lid was precisely weighed. • (2) An appropriate amount of the sample to be tested was evenly laid in the weighing bottle, with a thickness of generally about 1 mm, and the weight (m2) of the bottle with the lid was precisely weighed. • (3) The weighing bottle was kept open and placed together with the lid under constant temperature and humidity for 24 h. • (4) The weighing bottle was covered with the lid, and the weight (m3) was precisely weighed. • (5) Percentage of weight gain=(m3−m2)/(m2−m1)×100%.

[3] = Stability study: influencing factors (high temperature, high humidity, light exposure), HPLC content; assay type: physicochemical; details: for Content, 0 day: HPLC external standard; for Content, High humidity, 30 days: high humidity (RH80%); for Content, High temperature, 30 days: high temperature (60° C.); for Content, Light exposure, 30 days: light exposure (5000 Lux)
Description: 3 parts of each of the samples, carebastine (Comparative Example 2), the crystal form of carebastine p-toluenesulfonate (Example 2), and the amorphous form of carebastine p-toluenesulfonate (Example X), were weighed and placed in a weighing bottle, respectively, and each group of samples was placed under conditions of high temperature (60° C.), high humidity (RH80%) and light exposure (5000 Lux). Then, the samples were taken for detection after 30 days.
Detection method: An appropriate amount of each sample was taken, weighed precisely, dissolved with acetonitrile and quantitatively diluted into a solution containing about 0.08 mg of sample per 1 ml. High performance liquid chromatography (HPLC) was used, with octadecylsilane-bonded silica gel as filler, water-acetonitrile (1:1) as mobile phase, a detection wavelength of 256 nm, a column temperature of 35° C. and an injection volume of 10 μl. Each sample solution was injected into the liquid chromatograph instrument, and the chromatograms were recorded. The content of carebastine was calculated by an external standard method, and the impurity content was calculated by a peak area normalization method.

SMILES	AUC0-t ([1]; beagle)	Cmax ([1]; beagle)	T1/2 ([1]; beagle)	Tmax ([1]; beagle)	Percentage of weight gain (%) [2]	Content, 0 day [3]	Content, High humidity, 30 days ([3]; 30 days)	Content, High temperature, 30 days ([3]; 30 days)	Content, Light exposure, 30 days ([3]; 30 days)	half-life (T1/2) compared with Comparative Example 1 ([1]; beagle)	peak time (Tmax) compared with Comparative Example 1 ([1]; beagle)	Tmax compared with Comparative Example 2 [1]	half-life (T1/2) compared with Comparative Example 2 [1]	increase in AUC0-t compared with Comparative Example 1 ([1]; beagle)	increase in AUC0-t compared with Comparative Example 2 ([1]; beagle)	increase in Cmax compared with Comparative Example 1 ([1]; beagle)	increase in Cmax compared with Comparative Example 2 ([1]; beagle)	further results
CC(C)(C(=O)O)c1ccc(C(=O)CCCN2CCC(OC(c3ccccc3)c3ccccc3)CC2)cc1 [Comparative Example 2, 2-(4-(4-(4-(diphenylmethoxy)piperidine-1-yl)butyryl)phenyl)-2-methylpropanoic acid, reference compound]	840 ± 161 ng·h/mL	191 ± 51.4 ng/mL	3.74 ± 2.02 h	0.82 ± 0.52 h	6%	99.18%	98.11%	98.12%	87.28%									content decrease under high temperature and high humidity ([3]; 30 days, high temperature and high humidity): more than 1.0%; content decrease under light exposure ([3]; 30 days, light exposure): more than 10%; content of the maximum single impurity ([3]; after 30 days of influencing factor tests, peak area normalization): more than 0.5%
CC(C)(C(=O)O)c1ccc(C(=O)CCCN2CCC(OC(c3ccccc3)c3ccccc3)CC2)cc1.Cc1ccc(S(=O)(=O)O)cc1 [Example 2, carebastine p-toluenesulfonate]					−0.1%	99.42%	99.42%	99.43%	99.39%	prolonged	significantly shorter	essentially the same	prolonged	about 55%	about 38%	about 65%	about 55%	Cmax and AUC0-t compared with Example X ([1]; beagle, vs amorphous form): slightly higher; T1/2 compared with Example X ([1]; beagle, vs amorphous form): slightly longer
CC(C)(C(=O)O)c1ccc(C(=O)CCCN2CCC(OC(c3ccccc3)c3ccccc3)CC2)cc1.Cc1ccc(S(=O)(=O)O)cc1 [Example X, carebastine p-toluenesulfonate]					0.3%	98.59%	98.58%	98.54%	98.51%	prolonged	significantly shorter	essentially the same	prolonged	~31%	~17%	~46%	~37%	
CC(C)(C)c1ccc(C(=O)CCCN2CCC(OC(c3ccccc3)c3ccccc3)CC2)cc1 [Comparative Example 1, ebastine]	749 ± 127 ng·h/mL	179 ± 85.7 ng/mL	4.06 ± 1.19 h	2.25 ± 0.7 h														
CC(C)(C(=O)O)c1ccc(C(=O)CCCN2CCC(OC(c3ccccc3)c3ccccc3)CC2)cc1 [Comparative Example 3, carebastine hydrochloride, reference compound]																		Percentage of weight gain (%) ([2]; hydrochloride): 15.9%
